Data as given in patent publication US20240391912A1, “MORPHIC FORMS OF CFT7455 AND METHODS OF MANUFACTURE THEREOF” (C4 THERAPEUTICS, INC., priority 2022, published 2024).
Values after ≈ are worked out from the molar mass of the structure shown.

Tests used:
[1] = Scale-up experiment (200 mg) and characterization of new polymorphs of Compound 1; type: physicochemical; conditions: for X-ray diffraction: 3-40° (2 theta), XRPD method 1; for Thermogravimetry weight loss / water corresponding to TGA weight loss: TGA
Description: Scale-up 1: About 200 mg of Compound 1 Form I was dissolved in 10 mL THF/Water (95:5, v:v) at 40° C. […] Compound 1 Form IV was obtained. It was subjected to characterization.
Scale-up 2: About 200 mg of Compound 1 Form I was dissolved in 10 mL THF/Water (95:5, v:v) at 40° C. […] It was subjected to characterization.

[2] = Competitive equilibration experiment of Compound 1 Form I and Form IV for 1 week; type: physicochemical; conditions: for form obtained in competitive equilibration: 25° C.; for form obtained in competitive equilibration / XRPD: 1 week
Description: About 10 mg of Compound 1 Form I and 10 mg Compound 1 Form IV were added to 0.8 mL saturated solution in selected solvent. Obtained suspensions were stirred at 400 rpm and 25° C. for 1 week. Solids obtained were separated by filtration and characterized by XRPD.

[3] = Approximate solubility of Compound 5 polymorphs in EtOH:DCM (v:v=1:4); type: physicochemical; conditions: 25° C.; for Approximate solubility (visual appearance): EtOH:DCM (v:v = 1:4)
Description: Four polymorphs (Form V, Form VI, Form VII and Form VIII) were weighed respectively and a suitable amount of solvent mixture EtOH:DCM (v:v=1:4) was added. The obtained samples were stirred at a rate of 400 rpm at 25° C.

[4] = Bulk stability of Compound 5 Form VI and Form VIII at 25° C./60% RH, open container, 1 week (XRPD, HPLC, color); type: physicochemical
Description: Compound 5 Form VI and Form VIII were placed at 25° C./60% RH in an open container over 1 week. Samples after the stress were characterized by XRPD and HPLC and inspected for color change.

[5] = Solubility of Compound 5 Form VI and Form VIII at 25° C., equilibration for 24 hours (HPLC; XRPD of residual solids); type: physicochemical
Description: 11 mg (for 20 mg/mL target concentration) or 22 mg (for 50-60 mg/mL target concentration) of Compound 5 Form VI and Form VIII (equivalent to 10 mg or 20 mg of anhydrate free base) was weighed into a 4 mL glass vial, respectively. Up to 0.5 mL of potential eluent medium was added. The obtained suspensions/solutions were stirred at 25° C. at 400 rpm for 24 hours and then centrifuged at 25° C. at 14,000 rpm for 5 minutes. The residual solids were characterized by XRPD to determine the physical form. The supernatants (0.1 mL) were evaporated at about 22-25° C./30-60% RH.

[6] = Characterization of polymorphs and pseudo-polymorphs of Compound 5; type: physicochemical
[7] = Crystallization of Compound 1 at room temperature by slow evaporation (XRPD); type: physicochemical; conditions: 25° C./92% RH for 2 days
Description: About 20 mg of Compound 1 Form I (free form) was dissolved and filtered by 0.45 μm nylon filter. Obtained solutions were evaporated slowly at ambient condition. Solid residues were examined for their polymorphic form.

[8] = test system: OCI-LY10 human DLBCL intracranial xenografts; assay: OCI-LY10 human DLBCL intracranial xenograft study, survival; conditions: for Median Survival (Days), ± SEM / Survival time extension (%): Rituximab, i.v., QW
Description: Agents were tested in the OCI-LY10 human DLBCL intracranial model. […] Rituximab was administered from day 1 via i.v. once per week. Rituximab was dosed at 10 and 30 mg/kg. Individual mouse was euthanized once its body weight loss was over 20%.
The cells growing in an exponential growth phase were harvested and counted for tumor inoculation.
99 CB17 SCID mice were inoculated by intracranial injection with OCI-LY10 cells (1×10^6) for tumor development.
Tumor inoculation: Intraperitoneally injected avertin at dosage of 240 mg/kg to anaesthetize the CB17 SCID mice. Fixed the head of the anaesthetized mice to the brain solid positioner, sterilized the head skin with 70% alcohol. […] Punched a hole about 2 mm right of the anterior fontanel and 1 mm ahead the coronal on the skull with a 25 G needle. Cell suspensions were mixed and certain amount was sucked into the 5 μL injector slowly to avoid bubble formation. The cells were swapped around the needle with alcohol to avoid extracranial tumor genesis. The needle was stuck vertically into the formed hold and 5 μL of cell suspension containing 1×10^6 OCI-LY10 cells was slowly injected for over 1 minute. The injector was then held for another 1 minute and then pulled back to decrease the drainage of the cells suspension. The skin was closed with tweezers and then sewed. Meloxicam was then injected 30 min after the surgery at dosage of 5 mg/kg to relieve the pain. The animals were kept under monitoring until they were awake.
Animals were grouped for treatment on day 7 after tumor inoculation.
At the time of routine monitoring, the animals were daily checked for any effects of tumor growth and treatments on normal behavior such as mobility, food and water consumption (by looking only), body weight gain/loss (body weights were measured twice weekly), eye/hair matting and any other abnormal effect as stated in the protocol. Death and observed clinical signs were recorded on the basis of the numbers of animals within each subset.

[9] = THF/Heptane (v:v = 1:2), 25° C., 24 hours, target conc. 20 mg/mL
[10] = THF/water (v:v = 1:2.5), 25° C., 24 hours, target conc. 20 mg/mL, listed as Form VI

## O=C1CC[C@H](N2C(=O)c3cccc4c(Cc5ccc(CN6CCOCC6)cc5)ccc2c34)C(=O)N1 [Compound 1 Form IV, (S)-3-(6-(4-(morpholinomethyl)benzyl)-2-oxobenzo[cd]indol-1(2H)-yl)piperidine-2,6-dione]
[1]; listed as Form IV
  X-ray diffraction: Crystalline
[1]; 10° C./min, at 105° C.
  Thermogravimetry weight loss: About 1.3%
[1]; 10° C./min, listed as Form IV
  water corresponding to TGA weight loss: 105 °C (0.4 equiv.
[2]; THF/water systems with high water activity
  stability of the form: stable

## O=C1CCC(N2C(=O)c3cccc4c(Cc5ccc(CN6CCOCC6)cc5)ccc2c34)C(=O)N1 (racemic) [Compound 5 Form VI]
[3]; concentration 10 mg/mL, listed as Form VI
  Approximate solubility (visual appearance): Suspension
[3]; concentration 20 mg/mL, listed as Form VI
  Approximate solubility (visual appearance): Suspension
[3]; EtOH:DCM (v:v=1:4), visual observation
  approximate solubility compared with Form V and Form VII: higher solubility
[4]
  bulk stability, chemical: chemically stable
[4]; listed as Form VI
  bulk stability, physical (form): good physical stability
[4]; solid state, initial purity 93.1% (Form VI), 95.6% (Form VIII), listed as Form VI
  Bulk (HPLC) Purity: 93.1%
[4]; solid state, listed as Form VI
  Bulk (XRPD): Form VI
[5]; EtOH/DCM (v:v = 1:4), 25° C., 24 hours, target conc. 50-60 mg/mL, LOQ 0.8 μg/mL, listed as Form VI
  solubility: 27 mg/mL (≈ 57.5 mM)
[5]; MeOH/DCM (v:v = 1:2), 25° C., 24 hours, target conc. 50-60 mg/mL, LOQ 0.8 μg/mL
  solubility: 30 mg/mL (≈ 63.9 mM)
[5]; MeOH:DCM (v:v=1:2) and EtOH:DCM (v:v=1:4), 25° C., 24 h
  physical form after solubility test: converted to almost the amorphous form
[5]; [9]
  XRPD of residual solids: Form VI
  solubility: 0.1 mg/mL (≈ 0.213 mM)
[5]; THF/IPA (v:v = 1:2), 25° C., 24 hours, target conc. 20 mg/mL
  XRPD of residual solids: Form VI
[5]; THF/IPA (v:v = 1:2), 25° C., 24 hours, target conc. 20 mg/mL, listed as Form VI
  solubility: 0.9 mg/mL (≈ 1.92 mM)
[5]; [10]
  XRPD of residual solids: Form VI
  solubility: 4 mg/mL (≈ 8.52 mM)
[5]; THF:2-propanol (v:v=1:2), THF:Heptane (v:v=1:2) and THF:water (v:v=1:2.5), 25° C., 24 h
  physical form after solubility test: no form change
[5]; in EtOH/DCM (v:v=1:4), about 25° C., 24 h, listed as Form VI
  solubility: ~27 mg/mL (≈ 57.5 mM)
[5]; in MeOH/DCM (v:v=1:2), about 25° C., 24 h
  solubility: about 30 mg/mL
[5]; in MeOH:DCM (v:v=1:2) and EtOH:DCM (v:v=1:4), 25° C. for 24 h, listed as Form VI
  solubility: ~30 mg/mL (≈ 63.9 mM)
[5]; in THF:IPA (v:v=1:2), THF:Heptane (v:v=1:2) and THF:Heptane (v:v=1:2.5), 25° C. for 24 h
  solubility: ~1 mg/mL (≈ 2.13 mM)
[6]; DSC
  Evaporation of solvent from (by DSC): about 154° C.;
[6]; DSC, listed as Form VI
  Dehydration (by DSC): about 6° C.;
  Enthalpy (by DSC): 35 J/g
  Melting onset Tonset (by DSC): Tonset 226.4° C.,
[6]; at 215° C.
  Weight loss (by TGA): 9.7% at 215 °C
[6]; listed as Form VI
  Residual ion (by IC): Br−: Br^−: 0.22 equiv.
  Residual ion (by IC): Cl−: Cl^−: 0.08 equiv.;
  Residual ion (by IC): Li+: Li^+: 0.17 equiv.;
  Residual ion (by IC): Na+: Na+: 0.02 equiv.

## O=C1CC[C@H](N2C(=O)c3cccc4c(Cc5ccc(CN6CCOCC6)cc5)ccc2c34)C(=O)N1 [Form I and Form IV]
[2]; DMSO/water system, all selected water activity mixtures
  form obtained in competitive equilibration: physical mixtures of Form I and Form IV
[2]; THF/water system, a.w.≤0.3
  form obtained in competitive equilibration: Form I (anhydrate)
[2]; THF/water system, water activity (a.w.)≥0.6
  form obtained in competitive equilibration: Form IV (hydrate)

## O=C1CC[C@H](N2C(=O)c3cccc4c(Cc5ccc(CN6CCOCC6)cc5)ccc2c34)C(=O)N1 [Compound 1 Form III, (S)-3-(6-(4-(morpholinomethyl)benzyl)-2-oxobenzo[cd]indol-1(2H)-yl)piperidine-2,6-dione]
[1]; listed as Form III
  X-ray diffraction: Crystalline
[1]; 10° C./min, at 120° C.
  Thermogravimetry weight loss: About 5.8%
[1]; 10° C./min, listed as Form III
  water corresponding to TGA weight loss: 120 °C (1.5 equiv.

## O=C1CC[C@H](N2C(=O)c3cccc4c(Cc5ccc(CN6CCOCC6)cc5)ccc2c34)C(=O)N1 [Form I + Form IV]
[2]; THF/Water (63.9:36.1, v:v), a.w. 1.0, 25° C.
  XRPD: Form IV
[2]; THF/Water (86.9:13.1, v:v), a.w. 0.8, 25° C.
  XRPD: Form IV
[2]; THF/Water (92.3:7.7, v:v), a.w. 0.6, 25° C.
  XRPD: Form IV
[2]; THF/Water (97.0:3.0, v:v), a.w. 0.3, 25° C.
  XRPD: Form I
[2]; THF/Water (98.1:1.9, v:v), a.w. 0.2, 25° C.
  XRPD: Form I
[2]; THF/Water (99.1:0.9, v:v), a.w. 0.1, 25° C.
  XRPD: Form I

## O=C1CC[C@H](N2C(=O)c3cccc4c(Cc5ccc(CN6CCOCC6)cc5)ccc2c34)C(=O)N1 [Compound 1 Form II, (S)-3-(6-(4-(morpholinomethyl)benzyl)-2-oxobenzo[cd]indol-1(2H)-yl)piperidine-2,6-dione]
[7]
  Notes (form stability under humidity): No form change at 25° C./92% RH
[1]; 1H-NMR
  Stoichiometry: MeOH: 1.0 equiv.
[1]; 1H-NMR, listed as Form II
  Stoichiometry: DCM: 0.3% DCM and
[1]; listed as Form II
  X-ray diffraction: Crystalline
[1]; 25° C./92% RH for 2 days
  Form change at 25° C./92% RH: No form change
[1]; DSC, 10° C./min
  DSC: Methanol desolvation: at 103.1 °C
[1]; 10° C./min, at 125° C.
  Thermogravimetry weight loss: About 7.1%

## rituximab: CD20 inhibitor; targeted antibody
[8]; 10 mg/kg
  Median Survival (Days), ± SEM: 17.00 ± 0.46 days
  Survival time extension (%): 21.4%
[8]; 30 mg/kg
  Median Survival (Days), ± SEM: 16.00 ± 0.94 days
  Survival time extension (%): 14.3%
[8]; rituximab 10 mg/kg i.v. once per week, p=0.001
  extension of survival time: 21.4%
[8]; rituximab 30 mg/kg i.v. once per week, p=0.085
  extension of survival time: 14.3%

## O=C1CCC(N2C(=O)c3cccc4c(Cc5ccc(CN6CCOCC6)cc5)ccc2c34)C(=O)N1 (racemic) [Compound 5 Form VII]
[3]; concentration 10 mg/mL, listed as Form VII
  Approximate solubility (visual appearance): Suspension
[3]; concentration 20 mg/mL, listed as Form VII
  Approximate solubility (visual appearance): Suspension
[6]; 2 unknown peaks
  Residual solvent (by 1H-NMR): NMP: 1.6 equiv. NMP;
